# Measured values taken from patent publication US6046217A, “2,3,5-trisubstituted pyridines as inhibitors of cyclooxygenase-2” (Merck Frosst Canada & Co., priority 1998, dated 2000).
# Where two headings read alike, the source gives them in different places.
# Tests used:
# COX-1 [1] = biological target: T1, COX-1 (Homo sapiens, UniProt P23219); experiment: Assay of COX-1 activity from U937 cell microsomes (PGE2); format: biochemical; parameters: Assay of COX-1 Activity from U937 Cell Microsomes; endogenous in cells; host or cells: U937 cells, 100,000 x g microsomal pellet; details: U-937 cell microsomes, 15 min preincubation; read-out: COX-1 (IC50 mM) U-937
# T1 sequence (P23219 24-599): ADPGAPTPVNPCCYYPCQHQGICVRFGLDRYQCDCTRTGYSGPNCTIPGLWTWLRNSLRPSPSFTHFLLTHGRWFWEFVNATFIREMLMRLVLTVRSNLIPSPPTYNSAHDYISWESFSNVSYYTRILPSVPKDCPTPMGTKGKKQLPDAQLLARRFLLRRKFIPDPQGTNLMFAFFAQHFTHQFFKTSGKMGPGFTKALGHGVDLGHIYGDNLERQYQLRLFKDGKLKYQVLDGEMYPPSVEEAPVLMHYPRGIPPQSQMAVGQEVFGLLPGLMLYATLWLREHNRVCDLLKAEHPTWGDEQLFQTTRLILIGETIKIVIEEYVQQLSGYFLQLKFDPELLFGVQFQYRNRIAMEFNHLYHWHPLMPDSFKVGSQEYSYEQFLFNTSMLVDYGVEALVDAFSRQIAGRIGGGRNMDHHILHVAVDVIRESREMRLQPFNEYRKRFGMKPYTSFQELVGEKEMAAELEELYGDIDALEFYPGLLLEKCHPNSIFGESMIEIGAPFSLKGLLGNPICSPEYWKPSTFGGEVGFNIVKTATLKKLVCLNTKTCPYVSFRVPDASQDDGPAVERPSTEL
# Protocol: U 937 cells are pelleted by centrifugation at 500×g for 5 min and washed once with phosphate-buffered saline and repelleted. Cells are resuspended in homogenization buffer consisting of 0.1 M Tris-HCl, pH 7.4, 10 mM EDTA, […] leupeptin, 2 μg/ml soybean trypsin inhibitor, 2 μg/ml aprotinin and 1 mM phenyl methyl sulfonyl fluoride. The cell suspension is sonicated 4 times for 10 sec and is centrifuged at 10,000×g for 10 min at 4° C. The supernatant is centrifuged at 100,000×g for 1 hr at 4° C. The 100,000×g microsomal pellet is resuspended in 0.1 M Tris-HCl, pH 7.4, 10 mM EDTA to approximately 7 mg protein/ml and stored at -80° C.
# Microsomal preparations are thawed immediately prior to use, subjected to a brief sonication, and then diluted to a protein concentration of 125 μg/ml in 0.1 M Tris-HCl buffer, pH 7.4 containing 10 mM EDTA, 0.5 mM phenol, 1 mM reduced glutathione and 1 μM hematin. Assays are performed in duplicate in a final volume of 250 μl. Initially, 5 μl of DMSO vehicle or drug in DMSO are added to 20 μl of 0.1 M Tris-HCl buffer, pH 7.4 containing 10 mM EDTA in wells of a 96-deepwell polypropylene titre plate. 200 μl of the microsomal preparation are then added and pre-incubated for 15 min at room temperature before addition of 25 μl of […] arachidonic acid in […] Tris-HCl and 10 mM EDTA, pH 7.4. Samples are incubated for 40 min at room temperature and the reaction is stopped by the addition of 25 μl of 1 N HCl. Samples are neutralized with 25 μl of 1 N NaOH prior to quantitation of PGE2 content by radioimmunoassay (Dupont-NEN or Amersham assay kits). Cyclooxygenase activity is defined as the difference between PGE2 levels in samples incubated in the presence of arachidonic acid and ethanol vehicle.
# In the assay, inhibition is determined by measuring the amount of prostaglandin E2 (PGE2) synthesized in the presence of arachidonic acid, cyclooxygenase-1 or cyclooxygenase-2 and a putative inhibitor.
# COX-1 [2] = biological target: T1, COX-1; experiment: Human whole blood assay, COX-1 (clotting-induced TxB2 production); format: cell-based; parameters: platelets in whole blood contain a large amount of the COX-1 enzyme; endogenous in cells; host or cells: platelets in fresh human whole blood, clotting; details: human whole blood, clotting-induced TxB2, 1 h; read-out: COX-1 (IC50 mM) HWB
# From the text: (§1) As well, platelets in whole blood contain a large amount of the COX-1 enzyme. Immediately following blood clotting, platelets are activated through a thrombin-mediated mechanism. This reaction results in the production of thromboxane B2 (TxB2) via activation of COX-1. Thus, the effect of test compounds on TxB2 levels following blood clotting can be examined and used as an index for COX-1 activity. Therefore, the degree of selectivity by the test compound can be determined by measuring the levels of PGE2 after LPS induction (COX-2) and TxB2 following blood clotting (COX-1) in the same assay.
# Fresh blood is collected into vacutainers containing no anticoagulants. […] The tubes are vortexed and incubated at 37° C. for 1 hour to allow blood to clot. At the end of incubation, serum is obtained by centrifugation (12,000×g for 5 min.). A 100 μL aliquot of serum is mixed with 400 μL of methanol for protein precipitation.
# COX-2 [3] = biological target: T2, COX-2 (Homo sapiens, UniProt P35354); experiment: cell-based
# T2 sequence (P35354 18-604): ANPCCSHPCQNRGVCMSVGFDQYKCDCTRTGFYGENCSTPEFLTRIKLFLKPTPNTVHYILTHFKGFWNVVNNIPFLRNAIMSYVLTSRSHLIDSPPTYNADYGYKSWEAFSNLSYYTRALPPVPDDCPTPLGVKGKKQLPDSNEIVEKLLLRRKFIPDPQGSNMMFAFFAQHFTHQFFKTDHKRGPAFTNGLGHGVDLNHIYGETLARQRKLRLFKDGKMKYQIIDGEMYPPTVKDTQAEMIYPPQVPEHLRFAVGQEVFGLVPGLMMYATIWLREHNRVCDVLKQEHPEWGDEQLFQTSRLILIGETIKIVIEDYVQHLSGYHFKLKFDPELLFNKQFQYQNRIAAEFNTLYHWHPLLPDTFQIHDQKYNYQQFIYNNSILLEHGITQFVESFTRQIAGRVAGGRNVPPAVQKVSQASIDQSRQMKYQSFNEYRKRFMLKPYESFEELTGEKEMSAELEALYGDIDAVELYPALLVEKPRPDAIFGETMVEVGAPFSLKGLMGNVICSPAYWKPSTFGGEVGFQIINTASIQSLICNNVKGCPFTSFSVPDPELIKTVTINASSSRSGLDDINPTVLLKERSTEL
# Protocol: For cyclooxygenase assays, CHO[hCOX-1] cells from suspension cultures and CHO[hCOX-2] cells prepared by trypsinization of adherent cultures are harvested by centrifugation (300×g, 10 min) and washed once in HBSS containing 15 mM HEPES, pH 7.4, and resuspended in HBSS, 15 mM HEPES, pH 7.4, at a cell concentration of 1.5×10^6 cells/ml. Drugs to be tested are dissolved in DMSO to 66.7-fold the highest test drug concentration. […] Cells (0.3×10^6 cells in 200 μl) are preincubated with 3 μl of the test drug or DMSO vehicle for 15 min at 37° C. Working solutions of peroxide-free AA (5.5 μM and 110 μM AA for the CHO [hCOX-1] and CHO [COX-2] assays, respectively) are prepared by a 10-fold dilution of a concentrated AA solution in ethanol into HBSS containing 15 mM HEPES, pH 7.4. Cells are then challenged in the presence or absence of drug with the AA/HBSS solution to yield a final concentration of 0.5 μM AA in the CHO[hCOX-1] assay and a final concentration of 10 μM AA in the CHO[hCOX-2] assay. The reaction is terminated by the addition of 10 μl 1 N HCl followed by neutralization with 20 μl of 0.5 N NaOH. The samples are centrifuged at 300 ×g at 4° C. for 10 min, and an aliquot of the clarified supernatant is appropriately diluted for the determination of PGE2 levels using an enzyme-linked immunoassay for PGE2 (Correlate PGE2 enzyme immunoassay kit, Assay Designs, Inc.). Cyclooxygenase activity in the absence of test compounds is determined as the difference in PGE2 levels of cells challenged with arachidonic acid versus the PGE2 levels in cells mock-challenged with ethanol vehicle. Inhibition of PGE2 synthesis by test compounds is calculated as a percentage of the activity in the presence of drug versus the activity in the positive control samples.
# COX-2 [4] = biological target: T2, COX-2; experiment: cell-based; details: human whole blood, LPS-induced PGE2, 24 h
# From the text: as §1
# Fresh blood is collected in heparinized tubes by venipuncture from both male and female volunteers. The subjects have no apparent inflammatory conditions and have not taken any NSAIDs for at least 7 days prior to blood collection. Plasma is immediately obtained from a 2mL blood aliquot to use as blank (basal levels of PGE2). The remaining blood is incubated with LPS (100 μg/ml final concentration, Sigma Chem, #L-2630 from E. coli; diluted in 0.1% BSA (Phosphate buffered saline) for 5 minutes at room temperature. Five hundred […] aliquots of blood are incubated with either 2 μL of vehicle (DMSO) or 2 μL of a test compound at final concentrations varying from 10 nM to 30 μM for 24 hours at 37° C. At the end of the incubation, the blood is centrifuged at 12,000×g for 5 minutes to obtain plasma. A 100 μL aliquot of plasma is mixed with 400 μL of methanol for protein precipitation. The supernatant is obtained and is assayed for PGE2 using a radioimmunoassay kit (Amersham, RPA#530) after conversion of PGE2 to its methyl oximate derivative according to the manufacturer's procedure. […]
# [5] = CHO[hCOX-2] cells, 10 μM AA, 15 min preincubation, read-out: COX-2 (IC50 mM) CHO
SMILES,IC50 (COX-1 [1]) [mM],IC50 (COX-1 [2]) [mM],IC50 (COX-2 [3]; [5]) [nM],IC50 (COX-2 [4]; read-out: COX-2 (IC50 mM) HWB) [mM],IC50 (COX-2 [3]) [nM],IC50 (COX-2 [4]; COX-2 (IC50 mM) HWB) [mM]
"C[C@]1(O)CCC[C@H]1Oc1ncc(C(F)(F)F)cc1-c1ccc(S(C)(=O)=O)cc1 (single isomer, unassigned) [Example 31, (+)-2-(cis-2-Hydroxy-2-methylcyclopentyloxy)-3-(4-methylsulfonyl)phenyl-5-trifluoromethylpyridine]",0.037,> 0.1,,,,
"C[C@]1(O)CCC[C@H]1Oc1ncc(C(F)(F)F)cc1-c1ccc(S(C)(=O)=O)cc1 (single isomer, unassigned) [Example 32, (-)-2-(cis-2-Hydroxy-2-methylcyclopentyloxy)-3-(4-methylsulfonyl)phenyl-5-trifluoromethylpyridine]",> 0.01,> 0.1,,,,
"CS(=O)(=O)c1ccc(-c2cc(C(F)(F)F)cnc2OCC2(O)CCCC2)cc1 [Example 13, 2-(1-Hydroxycyclopentyl)methoxy-3-(4-methylsulfonyl)phenyl-5-trifluoromethylpyridine]",0.01,0.096,,,,
"C[C@@H](Oc1ncc(C(F)(F)F)cc1-c1ccc(S(C)(=O)=O)cc1)C(C)(C)O [Example 17, 2-((2R)-3-Hydroxy-3-methyl-2-butyloxy)-3-(4-methylsulfonyl)phenyl-5-trifluoromethylpyridine]",> 0.01,> 0.1,380,< 0.0004,,
"CCC(Oc1ncc(C(F)(F)F)cc1-c1ccc(S(C)(=O)=O)cc1)C(C)(C)O (stereo not drawn) [Example 19, 2-(4-Hydroxy-4-methyl-3-pentyloxy)-3-(4-methylsulfonyl)phenyl-5-trifluoromethylpyridine]",> 0.01,,320,0.0005,,
"CCC(O)(CC)[C@H](C)Oc1ncc(C(F)(F)F)cc1-c1ccc(S(C)(=O)=O)cc1 [Example 20, 2-((2S)-3-Ethyl-3-hydroxy-2-pentyloxy)-3-(4-methylsulfonyl)phenyl-5-trifluoromethylpyridine]",> 0.01,,400,0.0016,,
"C[C@@H](O)[C@@H](C)Oc1ncc(Cl)cc1-c1ccc(S(C)(=O)=O)cc1 [Example 24, 5-Chloro-2-((2R,3R)-3-hydroxy-2-butyloxy)-3-(4-methylsulfonyl)phenylpyridine]",> 0.01,,70,0.0015,,
"C[C@H](O)[C@@H](C)Oc1ncc(C(F)(F)F)cc1-c1ccc(S(C)(=O)=O)cc1 [Example 25, 2-((2R,3S)-3-Hydroxy-2-butyloxy)-3-(4-methylsulfonyl)phenyl-5-trifluoromethylpyridine]",> 0.01,,60,0.0036,,
"C[C@H](O)CCOc1ncc(C(F)(F)F)cc1-c1ccc(S(C)(=O)=O)cc1 [Example 38, 2-((3S)-3-Hydroxy-1-butyloxy)-3-(4-methylsulfonyl)phenyl-5-trifluoromethylpyridine]",0.003 to 0.01,,260,0.0059,,
"C[C@@H](O)CCOc1ncc(C(F)(F)F)cc1-c1ccc(S(C)(=O)=O)cc1 [Example 39, 2-((3R)-3-Hydroxy-1-butyloxy)-3-(4-methylsulfonyl)phenyl-5-trifluoromethylpyridine]",> 0.01,,200,0.0134,,
"CC(C)(O)CCOc1ncc(C(F)(F)F)cc1-c1ccc(S(C)(=O)=O)cc1 [Example 40, 2-(3-Hydroxy-3-methyl-1-butyloxy)-3-(4-methylsulfonyl)phenyl-5-trifluoromethylpyridine]",0.01,,200,0.0039,,
"C[C@H](CCO)Oc1ncc(C(F)(F)F)cc1-c1ccc(S(C)(=O)=O)cc1 [Example 41, 2-((2R)-4-Hydroxy-2-butyloxy)-3-(4-methylsulfonyl)phenyl-5-trifluoromethylpyridine]",> 0.01,,40,0.0004,,
"CC(C)(O)CSc1ncc(C(F)(F)F)cc1-c1ccc(S(C)(=O)=O)cc1 [Example 43, 2-(2-Hydroxy-2-methyl-1-thiopropyloxy)-3-(4-methylsulfonyl)phenyl-5-trifluoromethylpyridine]",0.003 to 0.01,0.039,,,,
"CC(C)(O)CSc1ncc(Cl)cc1-c1ccc(S(C)(=O)=O)cc1 [Example 44, 5-Chloro-2-(2-Hydroxy-2-methyl-1-thiopropyloxy)-3-(4-methylsulfonyl)phenylpyridine]",> 0.01,,40,0.0015,,
"CCC(O)(CC)CSc1ncc(C(F)(F)F)cc1-c1ccc(S(C)(=O)=O)cc1 [Example 47, 2-(2-Ethyl-2-hydroxy-1-thiobutyloxy)-3-(4-methylsulfonyl)phenyl-5-trifluoromethylpyridine]",0.003 to 0.01,,20,0.0006,,
"CCC(O)(CC)CSc1ncc(Cl)cc1-c1ccc(S(C)(=O)=O)cc1 [Example 48, 5-Chloro-2-(2-ethyl-2-hydroxy-1-thiobutyloxy)-3-(4-methylsulfonyl)phenylpyridine]",0.001 to 0.003,,70,0.0011,,
"CS(=O)(=O)c1ccc(-c2cc(C(F)(F)F)cnc2SCC2(O)CCCC2)cc1 [Example 49, 2-(1-Hydroxycyclopentyl)thiomethoxy-3-(4-methylsulfonyl)phenyl-5-trifluoromethylpyridine]",0.0003,,160,0.0012,,
"CC(CO)Sc1ncc(C(F)(F)F)cc1-c1ccc(S(C)(=O)=O)cc1 (stereo not drawn) [Example 50, 2-(3-Hydroxy-2-thiopropyloxy)-3-(4-methylsulfonyl)phenyl-5-trifluoromethylpyridine]",0.001 to 0.003,,,,50,0.0005
